Results taken from ChEMBL document CHEMBL1201862, “PubChem BioAssay data set” (2004).
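1) Cells in 96-well plates. 2) Compound, 48 h, 5 concentrations. 3) Linear interpolation between surrounding doses. 4) Unreached endpoint = highest concentration. Here, GI50 denotes the concentration required for 50% inhibition of growth.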 Calls of active or inactive are those of the source. No stated cut-off is given here; in the data, active = GI50 up to about 1.1 µM and inactive = higher.

Legend:
Assay in all cases: DTP human tumour cell line panel, 48 h
OVCAR-4 = system: OVCAR-4
SF-295 = system: SF-295
A498 = system: A498
M14 = system: M14
DU-145 = system: DU-145
HOP-62 = system: HOP-62
MDA-MB-231 = system: MDA-MB-231
BT-549 = system: BT-549
HOP-92 = system: HOP-92
SK-OV-3 = system: SK-OV-3
NCI-H460 = system: NCI-H460
SN12C = system: SN12C
A549 = system: A549
SK-MEL-5 = system: SK-MEL-5
NCI-H226 = system: NCI-H226
OVCAR-8 = system: OVCAR-8
K562 = system: K562
Hs-578T = system: Hs-578T

SMILES	GI50 (OVCAR-4)	GI50 (SF-295)	GI50 (A498)	GI50 (M14)	GI50 (DU-145)	GI50 (HOP-62)	GI50 (MDA-MB-231)	GI50 (BT-549)	GI50 (HOP-92)	GI50 (SK-OV-3)	GI50 (NCI-H460)	GI50 (SN12C)	GI50 (A549)	GI50 (SK-MEL-5)	GI50 (NCI-H226)	GI50 (OVCAR-8)	GI50 (K562)	GI50 (Hs-578T)
O=C1C2=Cc3ccccc3OC2(O)Oc2cc(O)cc(O)c21 (centres undefined)	92.3 µM (inactive)	> 100 µM (inactive)	> 100 µM (inactive)	> 100 µM (inactive)	> 100 µM (inactive)	> 100 µM (inactive)	> 100 µM (inactive)	> 100 µM (inactive)	> 100 µM (inactive)	> 100 µM (inactive)	41.5 µM (inactive)	> 100 µM (inactive)	> 100 µM (inactive)	> 100 µM (inactive)	> 100 µM (inactive)	> 100 µM (inactive)	81.7 µM (inactive)	–
FC(F)(Sc1ccccc1)c1nc2ccccc2o1	97.1 µM (inactive)	48.5 µM (inactive)	92.7 µM (inactive)	68.9 µM (inactive)	67.8 µM (inactive)	> 100 µM (inactive)	> 100 µM (inactive)	55.5 µM (inactive)	12.5 µM (inactive)	20.8 µM (inactive)	55.5 µM (inactive)	74.5 µM (inactive)	30.1 µM (inactive)	50 µM (inactive)	46.9 µM (inactive)	83.4 µM (inactive)	27 µM (inactive)	–
COc1ccc(N[C@H]([C@@H](c2ccccc2)[S+]([O-])c2ccc(C)cc2)C(F)(F)F)cc1 (some centres undefined)	26 µM (inactive)	82.8 µM (inactive)	–	45.6 µM (inactive)	62.8 µM (inactive)	–	32.9 µM (inactive)	38.6 µM (inactive)	34 µM (inactive)	> 100 µM (inactive)	50.1 µM (inactive)	71.8 µM (inactive)	32.7 µM (inactive)	35.8 µM (inactive)	48.4 µM (inactive)	80.9 µM (inactive)	28.4 µM (inactive)	–
COC(=O)CC(CC(=O)C(=O)OC)C(=O)OC (centres undefined)	–	> 100 µM (inactive)	> 100 µM (inactive)	> 100 µM (inactive)	–	> 100 µM (inactive)	–	–	> 100 µM (inactive)	> 100 µM (inactive)	> 100 µM (inactive)	> 100 µM (inactive)	> 100 µM (inactive)	> 100 µM (inactive)	> 100 µM (inactive)	> 100 µM (inactive)	> 100 µM (inactive)	–
COC(=O)C/N=C1\NC(=S)N(Cc2ccc(OC)cc2)C12CCCC2	> 100 µM (inactive)	> 100 µM (inactive)	> 100 µM (inactive)	> 100 µM (inactive)	> 100 µM (inactive)	> 100 µM (inactive)	> 100 µM (inactive)	> 100 µM (inactive)	> 100 µM (inactive)	> 100 µM (inactive)	> 100 µM (inactive)	> 100 µM (inactive)	> 100 µM (inactive)	–	> 100 µM (inactive)	> 100 µM (inactive)	> 100 µM (inactive)	–
CCOC(OCC)N1C(=O)C2(C(OCC)OCC)CC3C(OC(=O)N3N)c3cccc1c32 (centres undefined)	> 100 µM (inactive)	> 100 µM (inactive)	61.2 µM (inactive)	–	> 100 µM (inactive)	> 100 µM (inactive)	> 100 µM (inactive)	> 100 µM (inactive)	–	> 100 µM (inactive)	> 100 µM (inactive)	> 100 µM (inactive)	> 100 µM (inactive)	> 100 µM (inactive)	> 100 µM (inactive)	> 100 µM (inactive)	> 10 µM (inactive)	–
O=NN1CCN=C1c1ccc([N+](=O)[O-])cc1	> 100 µM (inactive)	> 100 µM (inactive)	–	> 100 µM (inactive)	–	> 100 µM (inactive)	–	–	> 100 µM (inactive)	> 100 µM (inactive)	> 100 µM (inactive)	> 100 µM (inactive)	> 100 µM (inactive)	> 100 µM (inactive)	> 100 µM (inactive)	> 100 µM (inactive)	> 100 µM (inactive)	–
Cc1cccc(/C=N\NC(=S)N2CCCCC2)n1	< 0.01 µM (active)	0.211 µM (active)	0.0241 µM (active)	< 0.01 µM (active)	0.362 µM (active)	0.0776 µM (active)	< 0.01 µM (active)	–	0.474 µM (active)	0.685 µM (active)	0.22 µM (active)	0.181 µM (active)	0.158 µM (active)	0.0229 µM (active)	0.184 µM (active)	0.036 µM (active)	< 0.01 µM (active)	26.5 µM (inactive)
O=c1cc(-c2ccncc2)[nH]c2cc3c(cc12)OCO3	> 100 µM (inactive)	> 100 µM (inactive)	> 100 µM (inactive)	> 100 µM (inactive)	> 100 µM (inactive)	> 100 µM (inactive)	> 100 µM (inactive)	–	> 100 µM (inactive)	> 100 µM (inactive)	> 100 µM (inactive)	> 100 µM (inactive)	> 100 µM (inactive)	> 100 µM (inactive)	> 100 µM (inactive)	> 100 µM (inactive)	–	> 100 µM (inactive)
CC(C)(C)N1NC1C1NN1C(C)(C)C (centres undefined)	> 100 µM (inactive)	> 100 µM (inactive)	> 100 µM (inactive)	> 100 µM (inactive)	> 100 µM (inactive)	> 100 µM (inactive)	> 100 µM (inactive)	–	> 100 µM (inactive)	> 100 µM (inactive)	> 100 µM (inactive)	> 100 µM (inactive)	> 100 µM (inactive)	> 100 µM (inactive)	> 100 µM (inactive)	> 100 µM (inactive)	> 100 µM (inactive)	> 100 µM (inactive)
O=c1c2cc(Br)cc(Br)c2[nH]c(=S)n1-c1ccc(/N=N/c2ccc(O)c3cccnc23)cc1	57.9 µM (inactive)	64.9 µM (inactive)	> 100 µM (inactive)	39.7 µM (inactive)	33 µM (inactive)	33.3 µM (inactive)	32.2 µM (inactive)	–	18 µM (inactive)	> 100 µM (inactive)	–	44.5 µM (inactive)	17.8 µM (inactive)	11.9 µM (inactive)	> 100 µM (inactive)	23.3 µM (inactive)	10.7 µM (inactive)	> 100 µM (inactive)
CSC1=N/C(=C\c2ccco2)C(=O)N1CN1CCCCC1	–	> 100 µM (inactive)	> 100 µM (inactive)	85.3 µM (inactive)	81.3 µM (inactive)	> 100 µM (inactive)	> 100 µM (inactive)	–	28.4 µM (inactive)	> 100 µM (inactive)	–	65.3 µM (inactive)	> 100 µM (inactive)	55.1 µM (inactive)	> 100 µM (inactive)	75.9 µM (inactive)	59.6 µM (inactive)	> 100 µM (inactive)
COc1cc(C=O)cc(/C=N/c2ccccn2)c1O	> 100 µM (inactive)	5.47 µM (inactive)	9.64 µM (inactive)	6.87 µM (inactive)	> 100 µM (inactive)	16 µM (inactive)	9.02 µM (inactive)	–	2.72 µM (inactive)	4.98 µM (inactive)	19.5 µM (inactive)	12.6 µM (inactive)	32 µM (inactive)	2.39 µM (inactive)	4.84 µM (inactive)	2.78 µM (inactive)	61.1 µM (inactive)	4.63 µM (inactive)
